In patent US4480030A, “Tripeptide derivatives and their application in assaying enzymes” (Pentapharm A.G., priority 1980, dated 1984):
Square brackets hold non-standard residues; d marks the D form. Peptide text beside a SMILES is read from it. * marks the point of attachment. dAad = N[C@H](CCCC(=O)O)C(=O)O; pNA = O=[N+]([O-])c1ccc(N*)cc1; Cbz = O=C(OCc1ccccc1)*

Assays:
human factor Xa = target: T1, human factor Xa (Homo sapiens, UniProt P00742); experiment: Activity of factor Xa obtained by RVV activation of factor X in normal human blood plasma on substrate (split product H-R5 released); type: biochemical; details: substrate concentration 2 × 10^-4; TRIS-imidazole buffer pH 8.4, ionic strength 0.3, 37° C.; citrated plasma activated with Russel viper venom 75 seconds; value calculated for 1 ml of citrated plasma
T1 construct: from tissue
T1 sequence (P00742 235-488 limits assumed): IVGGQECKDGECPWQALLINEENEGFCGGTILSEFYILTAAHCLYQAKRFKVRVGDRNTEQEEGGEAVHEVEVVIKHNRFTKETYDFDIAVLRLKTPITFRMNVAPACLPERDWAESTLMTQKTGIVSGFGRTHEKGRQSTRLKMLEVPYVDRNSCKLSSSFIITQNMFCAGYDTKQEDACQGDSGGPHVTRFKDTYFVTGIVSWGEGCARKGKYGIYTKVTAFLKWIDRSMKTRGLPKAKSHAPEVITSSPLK
T1 sequence (P00742 41-179 partner limits assumed): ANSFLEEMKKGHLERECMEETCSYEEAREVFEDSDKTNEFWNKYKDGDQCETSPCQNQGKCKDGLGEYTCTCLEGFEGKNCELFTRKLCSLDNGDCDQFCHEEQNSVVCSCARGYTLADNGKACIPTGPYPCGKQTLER
Method: (§1) The values of the factor Xa activity given in Table 4 were determined experimentally in the manner described hereinafter:
For determining the activity of human factor Xa 0.01 ml of normal citrated plasma was mixed with 0.20 ml of a solution of Russel viper venom in TRIS-imidazole buffer having a pH of 8.4 and an ionic strength of 0.3 and containing 15 mmoles of CaCl2 […]. The mixture was incubated for 75 seconds at 37° C. in order to activate factor X present in the plasma and convert it completely into factor Xa. To the incubate there was added first 1.40 ml of TRIS-imidazole buffer (pH 8.4, ionic strength 0.3) heated to 37° C. and then 0.40 ml of a 2×10^-3 M aqueous solution of a substrate of the invention. Thereafter, the quantity of split produce H--R^5 in nanomoles released per minute was determined, and the corresponding value for 1 ml of citrated plasma was calculated.

bovine factor Xa = target: T2, bovine factor Xa (Bos taurus, UniProt P00743); experiment: Activity of bovine factor Xa solution on chromogenic/fluorogenic substrate (split product H-R5 released); type: biochemical; details: substrate concentration 2 × 10^-4; TRIS-imidazole buffer pH 8.4, ionic strength 0.3, 37° C.; factor Xa preparation "Diagen"; value calculated for 1 ml of factor Xa solution
T2 construct: purchased Diagnostic Reagents Ltd., Thame, Great Britain factor Xa preparation "Diagen"
T2 sequence (P00743 234-492 limits assumed): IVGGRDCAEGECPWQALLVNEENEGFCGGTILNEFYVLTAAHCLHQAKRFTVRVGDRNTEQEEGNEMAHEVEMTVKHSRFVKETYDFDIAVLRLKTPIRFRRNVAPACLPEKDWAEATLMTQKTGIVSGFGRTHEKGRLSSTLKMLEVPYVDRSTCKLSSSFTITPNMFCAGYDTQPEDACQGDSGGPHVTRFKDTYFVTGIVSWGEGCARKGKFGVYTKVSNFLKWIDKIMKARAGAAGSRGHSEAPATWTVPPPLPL
T2 sequence (P00743 41-180 partner limits assumed): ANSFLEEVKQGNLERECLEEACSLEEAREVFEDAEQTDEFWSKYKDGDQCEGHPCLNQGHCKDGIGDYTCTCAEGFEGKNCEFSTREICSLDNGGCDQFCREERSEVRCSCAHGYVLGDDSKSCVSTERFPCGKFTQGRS
Method: as §1
For determining the activity of bovine factor Xa 1.8 ml of TRIS-imidazole buffer having a pH of 8.4 and an ionic strength of 0.3 was well mixed at 37° C. with 0.025 ml of an aqueous solution of factor Xa preparation "Diagen" (furnisher: Diagnostic Reagents Ltd., Thame, Great Britain) obtained by dissolving the contents of one vial in 0.5 ml of water. To the mixture there was added 0.2 ml of a 2×10^-3 M aqueous solution of a substrate of the invention. Thereafter, the quantity of split product H--R^5 in nanomoles released per minute was determined, and the corresponding value of 1 ml of factor Xa solution was calculated.

Molecule | Activity of factor Xa as obtained by activation of factor X in 1 ml of normal human blood plasma by means of RVV, expressed in nanomoles of split product H--R^5 released per minute (human factor Xa) | Activity of 1 ml of aqueous solution of bovine factor Xa, expressed in nanomoles of split product H--R^5 released per minute (bovine factor Xa)
2-(4-Cbo-- amino)-phenylacetyl-D-Nval--Gly--Arg--pNA.HBr [Example 53] | 510 nanomoles of split product H-- | 680 nanomoles of split product H--
4-Aminomethyl-cyclohexyl-carbonyl-bonyl-D-Leu--Sar--Arg--pNA.2HBr [Example 43] | 30 nanomoles of split product H-- | 60 nanomoles of split product H--
N=C(N)NCCC[C@H](NC(=O)CNC(=O)[C@@H](CCC(=O)O)NC(=O)OCc1ccccc1)C(=O)Nc1ccc([N+](=O)[O-])cc1 [Example 96, Cbo--D-Glu--Gly--Arg--pNA] (Cbz-[dE]-Gly-Arg-pNA) | 505 nanomoles of split product H-- | 830 nanomoles of split product H--
N=C(N)NCCC[C@H](NC(=O)CNC(=O)[C@@H](CCCC(=O)O)NC(=O)OCc1ccccc1)C(=O)Nc1ccc([N+](=O)[O-])cc1 [Example 102, Cbo--D-Aadi--Gly--Arg--pNA] (Cbz-[dAad]-Gly-Arg-pNA) | 905 nanomoles of split product H-- | 1030 nanomoles of split product H--
BOC--D-(α)-AOA--Gly--Arg--pNA.AcOH [Example 84] | 1690 nanomoles of split product H-- | 2210 nanomoles of split product H--
Cbo--4-aminomethyl-cyclohexyl-carbonyl-D-Leu--176 Sar--Arg--pNA.HBr [Example 42] | 20 nanomoles of split product H-- | 30 nanomoles of split product H--
